# Patent publication USRE31731E, “Herbicidal 4-trifluoromethyl-4-nitrodiphenyl ethers” (priority 1978, dated 1984)
# Legend:
# Type in all cases: in vivo
# [1] = tested on: Dicots; experiment: Herbicidal activity, postemergence, dicot weeds (Table II); details: post-emergence, 336 h, about 2 weeks, read-out: % control (percent of plants killed); for pest or weed control at 4483.4 g/ha: 4 lb./A.; for pest or weed control at 11208.5 g/ha: 10 lb./A.; for pest or weed control at 2241.7 g/ha: 2 lb./A.
# Description: (§1) Using the procedure described below, diphenyl ethers were evaluated for control of the following weeds: […]
# (§2) bindweed (Convolvulus arvensis) curly dock (Remex crispus) velvetleaf (Abutilon theophrasti) wild mustard (Brassica haber)
# (§3) At 2 and 4 pounds per acre: […]
# (§4) cocklebur (Xanthium pensylvanicum)
# (§5) **coffeeweed (Sesbania macrocarpa)
# (§6) *curly dock (Rumex crispus)
# (§7) *lambsquarters (Chenopodium album) morningglory (Ipomoea purpurea)
# (§8) *pigweed (Amaranthus retroflexus)
# (§9) **ragweed (Ambrosia artemisiifolia)
# (§10) *smartweed (Polygonum pensylvanicum)
# (§11) **tomato (Lycopersicon esculentum)
# (§12) *wild carrot (Daucus carota)
# (§13) *wild mustard (Brassica haber)
# (§14) The following test procedure is employed. Seeds of selected crops and weeds are planted in soil in flats. For preemergence tests, the flats are treated with the test compound immediately after the planting. For postemergence tests, the seeds are allowed to germinate, and after 2 weeks the flats are treated with the test compound. The compound to be evaluated is dissolved in acetone, diluted with water, and sprayed over the flats using a carrier volume equivalent to 50 gallons per acre at the rate of application (pounds per acre, lb/A.) specified in the tables. About 2 weeks after the application of the test compound, the state of growth of the plants is observed and the phytotoxic effect of the compound is evaluated. Table II gives the average percent control achieved by the test compounds in terms of the percent of the plants which are killed by the compounds.
# [2] = tested on: Monocots; experiment: Herbicidal activity, postemergence, monocot weeds (Table II); details: post-emergence, 336 h, about 2 weeks, read-out: % control (percent of plants killed); for pest or weed control at 4483.4 g/ha: 4 lb./A.; for pest or weed control at 11208.5 g/ha: 10 lb./A.; for pest or weed control at 2241.7 g/ha: 2 lb./A.
# Description: as §1
# (§15) barnyardgrass (Echinochloa crusgalli) crabgrass (Digitaria spp.) nutsedge (Cyperus esculentus)
# (§16) At 2 and 4 pounds per acre:
# (§17) **Bermudagrass (Cynodon dactylon)
# (§18) *downy brome (Bromus tectorum) foxtail (Setaria faberii)
# (§19) Johnsongrass (Sorghum halepense) […]
# (§20) quackgrass (Agropyron repens)
# (§21) *ryegrass (Lolium perenne)
# (§22) *yellow millet (Panicum miliaceum)
# as §14
# [3] = tested on: Dicots; experiment: Herbicidal activity, preemergence, dicot weeds (Table II); details: pre-emergence, 336 h, about 2 weeks, read-out: % control (percent of plants killed); for pest or weed control at 4483.4 g/ha: 4 lb./A.; for pest or weed control at 11208.5 g/ha: 10 lb./A.; for pest or weed control at 2241.7 g/ha: 2 lb./A.
# Description: as §1, §2, §3, §4, §5, §6, §7, §8, §9, §10, §11, §12, §13, §14
# [4] = tested on: Monocots; experiment: Herbicidal activity, preemergence, monocot weeds (Table II); details: pre-emergence, 336 h, about 2 weeks, read-out: % control (percent of plants killed); for pest or weed control at 4483.4 g/ha: 4 lb./A.; for pest or weed control at 11208.5 g/ha: 10 lb./A.; for pest or weed control at 2241.7 g/ha: 2 lb./A.
# Description: as §1, §15, §16, §17, §18, §19, §20, §21, §22, §14
SMILES,pest or weed control at 4483.4 g/ha [1],pest or weed control at 11208.5 g/ha [1],pest or weed control at 4483.4 g/ha [2],pest or weed control at 11208.5 g/ha [2],pest or weed control at 4483.4 g/ha [3],pest or weed control at 11208.5 g/ha [3],pest or weed control at 4483.4 g/ha [4],pest or weed control at 11208.5 g/ha [4],pest or weed control at 2241.7 g/ha [1],pest or weed control at 2241.7 g/ha [2],pest or weed control at 2241.7 g/ha [3],pest or weed control at 2241.7 g/ha [4]
CCOc1cc(Oc2ccc(C(F)(F)F)cc2)ccc1[N+](=O)[O-] [Example 1],58%,100%,57%,82%,45%,35%,76%,42%,,,,
COc1cc(Oc2ccc(C(F)(F)F)cc2Cl)ccc1[N+](=O)[O-] [Example 2],100%,100%,99%,100%,80%,100%,97%,97%,,,,
CCCOc1cc(Oc2ccc(C(F)(F)F)cc2Cl)ccc1[N+](=O)[O-] [Example 5],100%,100%,99%,100%,78%,100%,84%,97%,,,,
CCCCOc1cc(Oc2ccc(C(F)(F)F)cc2Cl)ccc1[N+](=O)[O-] [Example 6],94%,100%,91%,97%,55%,70%,77%,65%,,,,
"CCOc1cc(Oc2ccc(C(F)(F)F)cc2C#N)ccc1[N+](=O)[O-] [Example 7, 2-Cyano-α,α,α-trifluoro-p-tolyl-3-ethoxy-4-nitrophenyl ether]",77%,100%,75%,100%,57%,60%,65%,61%,80%,82%,54%,65%
CCCOc1cc(Oc2ccc(C(F)(F)F)cc2C#N)ccc1[N+](=O)[O-] [Example 8],80%,100%,48%,85%,57%,82%,61%,81%,66%,35%,46%,52%
Cc1cc(Oc2ccc(C(F)(F)F)cc2C#N)ccc1[N+](=O)[O-] [Example 9],81%,100%,97%,100%,66%,92%,90%,99%,75%,82%,67%,81%
"O=[N+]([O-])c1ccc(Oc2ccc(C(F)(F)F)cc2Cl)cc1O [Example 10, 2-Chloro-α,α,α-trifluoro-p-tolyl-3-hydroxy-4-nitrophenyl ether]",98%,,67%,,100%,,70%,,85%,17%,70%,66%
C=CCOc1cc(Oc2ccc(C(F)(F)F)cc2Cl)ccc1[N+](=O)[O-] [Example 12],100%,,77%,,96%,,86%,,100%,99%,93%,72%
C#CCOc1cc(Oc2ccc(C(F)(F)F)cc2Cl)ccc1[N+](=O)[O-] [Example 13],98%,,77%,,90%,,76%,,100%,100%,72%,78%
CC#CCCOc1cc(Oc2ccc(C(F)(F)F)cc2Cl)ccc1[N+](=O)[O-] [Example 14],94%,,61%,,78%,,64%,,100%,91%,22%,30%
"O=[N+]([O-])c1ccc(Oc2ccc(C(F)(F)F)cc2Cl)cc1OCCO [Example 15, 2-chloro-α,α,α-trifluoro-p-tolyl-3-(2-hydroxyethoxy)-4-nitrophenyl ether]",99%,,79%,,100%,,99%,,94%,76%,90%,68%
CCOCCOc1cc(Oc2ccc(C(F)(F)F)cc2Cl)ccc1[N+](=O)[O-] [Example 16],96%,,77%,,94%,,86%,,94%,82%,75%,67%
"CN(C)CCOc1cc(Oc2ccc(C(F)(F)F)cc2Cl)ccc1[N+](=O)[O-] [Example 17, 2-chloro-α,α,α-trifluoro-p-tolyl-3-(2-dimethylaminoethoxy)-4-nitrophenyl ether]",89%,,45%,,84%,,51%,,98%,39%,31%,20%
O=[N+]([O-])c1ccc(Oc2ccc(C(F)(F)F)cc2Cl)cc1NCCO [Example 22],99%,,60%,,98%,,72%,,100%,70%,77%,63%
O=C(O)COc1cc(Oc2ccc(C(F)(F)F)cc2Cl)ccc1[N+](=O)[O-] [Example 23],100%,,82%,,64%,,90%,,100%,71%,87%,55%
CCOC(=O)COc1cc(Oc2ccc(C(F)(F)F)cc2Cl)ccc1[N+](=O)[O-] [Example 24],99%,,86%,,68%,,91%,,100%,84%,97%,62%
"CC(Oc1cc(Oc2ccc(C(F)(F)F)cc2Cl)ccc1[N+](=O)[O-])C(=O)O (stereo not drawn) [Example 25, 2-Chloro-α,α,α-trifluoro-p-tolyl-3-(1-carboxyethoxy)-4-nitrophenyl ether]",100%,,97%,,88%,,87%,,100%,88%,93%,40%
Nc1cc(Oc2ccc(C(F)(F)F)cc2Cl)ccc1[N+](=O)[O-] [Example 27],100%,,82%,,98%,,76%,,100%,99%,90%,74%
